The numbers were not newly measured in patent publication US20230086007A1, “USE OF DENATONIUM BENZOATE AS A SEED TREATMENT FOR CROPS AS BIRD AND/OR INSECT REPELLENT” (KWS SAAT SE & Co. KGaA, priority 2020, published 2023), which cites them from elsewhere.

This data set relates to maize. Conditions: maize seed treatment; cited from earlier work.

Turning to `CN(C)C(=S)SSC(=S)N(C)C` [Thiram], the “effect on early seedling vigour” value is “significant reduction in early seedling vigour”.
